Assays:
Format in all cases: in vivo
[1] = test system: Laodelphax striatellus; experiment: whole plant or invertebrate; conditions: Laodelphax striatellus, in Oryza sativa, 144 h, read-out: Insect death ratio (%)
Description: (§1) Insecticidal Test Against Laodelphax striatellus
A chemical solution diluted to have a pre-determined concentration was sprayed to young rice plant (breed: Koshihikari) followed by air drying. Then, it was added to a glass test tube (diameter of 3 cm and height of 10 cm) added with water together with ten 3-stage larvae of Laodelphax striatellus. The tube was then covered. The number of living insects was determined after 6 days and the dead insect ratio was calculated. There were two series, i.e., 10 insects per group. Meanwhile, in Table 29, when combination of two types of test chemicals are used (i.e., A and B), the combination of the two types was described as A+B, and in the concentration column (ppm), it was described as concentration of A+concentration of B.

[2] = test system: Myzus persicae; experiment: Test Example 12: insecticidal test against Myzus persicae (leaf spray on young white radish plant, single and combined chemicals); conditions: after 5 days
Description: Insecticidal Test Against Myzus persicae
A chemical solution which has been diluted to have a pre-determined concentration was sprayed on a leaf part of young white radish plant having 1-stage larvae Myzus persicae present thereon. After air drying, they were left to stand in an incubator at 25° C. and the numbers of living insects and dead insects were examined after 5 days (2 series). Meanwhile, in Table 32, when combination of two types of test chemicals are used (i.e., A and B), the combination of the two types was described as A+B, and in the concentration column (ppm), it was described as concentration of A+concentration of B.

[3] = test system: Nilaparvata lugens; experiment: Test Example 3: insecticidal test against Nilaparvata lugens (spray on young rice plant); conditions: after 6 days
[4] = test system: Nilaparvata lugens; experiment: as above; conditions: after 6 days; remark: listed apart in the source
Description: Insecticidal Test Against Nilaparvata lugens
2.5 ml of acetone solution prepared to have the test compound at the pre-determined concentration described in the following Table 28 was sprayed to young rice plant followed by air drying. Then, it was added to a glass bottle (diameter of 3 cm and height of 13 cm) added with water. Ten sensitive Nilaparvata lugens (3-stage) were released therein, and then the bottle was covered with a cap. After keeping them in an incubator at 25° C., the numbers of living insects and dead insects were determined after 6 days (two series). Meanwhile, as a comparative compound, imidacloprid was used.

[5] = test system: Laodelphax striatellus; experiment: Test Example 14: insecticidal test against Laodelphax striatellus (spray on young rice plant, comparison with Reference Examples 3 and 4); conditions: after 6 days
Description: as §1
A young rice plant (breed: Koshihikari) was sprayed with a chemical solution which has been diluted to a pre-determined concentration followed by air drying. Then, it was added to a glass test tube (diameter of 3 cm and height of 10 cm) added with water, together with ten Laodelphax striatellus larvae (3-stage), and then the tube was covered with a cap. The number of dead insects was determined after 6 days and the insect death ratio was calculated. There were two series, i.e., 10 insects per group.
Meanwhile, as a comparative compound, Reference Example 3 disclosed in the pamphlet of International Publication No. 2013/144088 and Reference Example 4 with C═O position different from the present compound were used.

[6] = test system: Nilaparvata lugens; experiment: Test Example 13: insecticidal test against Nilaparvata lugens using paddy field rice cultivating box (granule treatment); conditions: for Adult insect death ratio (%): adults released 22 days after treatment, after 5 days; for Number of larvaes (number of insects): next generation larvae after 22 days
Description: Insecticidal Test Against Nilaparvata lugens Using Paddy Field Rice Cultivating Box
A rice plant (breed: Koshihikari) cultivated in cultivating box was treated with granules with a pre-determined chemical amount, and it was transplanted in two pots, i.e., four plants per 1/5000a pot. Twenty-two days after the treatment, 10 female adults of Nilaparvata lugens were released and the young plants were covered with a mesh. Then, the insect death ratio was determined after 5 days. In addition, the number of the next generation larvae was determined after 22 days. There were two series. Meanwhile, in Table 33, when combination of two types of test chemicals (i.e., A and B), the combination of the two types was described as A+B, and in the chemical amount column (g a.i./box), it was described as chemical amount of A+chemical amount of B.

[7] = test system: Pyricularia oryzae; experiment: whole plant or invertebrate; conditions: Pyricularia oryzae, 168 h, read-out: Rice blast control value
[8] = test system: Chilo suppressalis; experiment: Test Example 10: insecticidal test against Chilo suppressalis (rice stem dip, single and combined chemicals); conditions: Chilo suppressalis, 144 h; 100 ppm, after 6 days; read-out: Insect death ratio (%)
Description: Insecticidal Test Against Chilo suppressalis
A stem part was cut from a rice plant (breed: Koshihikari) cultivated in water and it was immersed in a chemical solution which has been diluted to have a pre-determined concentration. After air drying, it was put into a 9 cm polyethylene cup having a water-wetted filter paper laid on the bottom thereof, and 3-stage larvae of Chilo suppressalis were released and covered. They were left to stand in an incubator at 25° C., and the numbers of living insects and dead insects were examined after 6 days. There were two series, i.e., 5 insects per group. Meanwhile, in Table 30, when combination of two types of test chemicals are used (i.e., A and B), the combination of the two types was described as A+B, and in the concentration column (ppm), it was described as concentration of A+concentration of B.

CN/C(=N/CC1CCOC1)N[N+](=O)[O-] (stereo not shown) [Dinotefuran, dinotefuran]
pest or weed control at 1 ppm [1]: 45%
Insect death ratio (%) ([2]; 10 ppm): 75%

N#CCNC(=O)c1cnccc1C(F)(F)F [Flonicamid, flonicamid]
Insect death ratio (%) ([2]; 1 ppm): 79%

O=[N+]([O-])NC1=NCCN1Cc1ccc(Cl)nc1 [Imidacloprid, imidacloprid, reference compound]
pest or weed control at 0.1 ppm ([1]; 0.1 ppm, after 6 days): 30%
Insect death ratio (%) ([2]; 1 ppm): 100%
Resistant insect death ratio (%) ([3]; 10 ppm spray): 21.7%
Resistant insect death ratio (%) ([3]; 100 ppm spray): 50.4%
Sensitive insect death ratio (%) ([4]; 10 ppm spray): 100%
Sensitive insect death ratio (%) ([4]; 100 ppm spray): 100%

CC(C)CC(C)c1sccc1NC(=O)c1cn(C)nc1C(F)(F)F (stereo not shown) [Penthiopyrad, penthiopyrad]
Insect death ratio (%) ([2]; 100 ppm): 13%

CC1=NNC(=O)N(/N=C/c2cccnc2)C1 [Pymetrozine, pymetrozine]
pest or weed control at 10 ppm ([1]; 10 ppm, after 6 days): 30%
Insect death ratio (%) ([2]; 1 ppm): 89%

CC(=O)N1C(=O)N(NCc2cccnc2)Cc2cc(C(F)(C(F)(F)F)C(F)(F)F)ccc21 [Pyrifluquinazon, pyrifluquinazon]
Insect death ratio (%) ([2]; 1 ppm): 100%

CSc1nc2n(Cc3ccc(Br)nc3)ccc(=O)n2n1 [Reference Example 3, 4-((6-bromopyridin-3-yl)methyl)-2-(methylthio)-[1,2,4]triazolo[1,5-a]pyrimidin-7(4H)-one, reference compound]
Insect death ratio (%) ([5]; 100 ppm): 21%

CSc1nc2n(Cc3ccc(Cl)nc3)c(=O)cc(C)n2n1 [Reference Example 4, 4-((6-chloropyridin-3-yl)methyl)-7-methyl-2-(methylthio)-[1,2,4]triazolo[1,5-a]pyrimidin-5(4H)-one, reference compound]
Insect death ratio (%) ([5]; 1000 ppm): 40%

C[Si](C)(C)CC(O)(Cn1cncn1)c1ccc(F)cc1 (stereo not shown) [Simeconazole, simeconazole, reference compound]
Adult insect death ratio (%) ([6]; 2.25 g a.i./box granules): 20%
Number of larvaes (number of insects) ([6]; 2.25 g a.i./box granules): 69 number of insects

CN1COCN(Cc2cnc(Cl)s2)/C1=N\[N+](=O)[O-] [Thiamethoxam, thiamethoxam]
Insect death ratio (%) ([2]; 1 ppm): 94%

CSc1nc2n(Cc3ccc(Cl)nc3)c(C)cc(=O)n2n1 [compound 5, 4-((6-chloropyridin-3-yl)methyl)-5-methyl-2-(methylthio)-[1,2,4]triazolo[1,5-a]pyrimidin-7(4H)-one]
pest or weed control at 3 ppm ([1]; after 6 days): 20%
Insect death ratio (%) ([2]; 100 ppm): 73%
pest or weed control at 100 ppm [7]: 0%
Insect death ratio (%) ([5]; 10 ppm): 100%
pest or weed control at 100 ppm [8]: 0%
Resistant insect death ratio (%) ([3]; 10 ppm spray): 95%
Resistant insect death ratio (%) ([3]; 100 ppm spray): 100%
Sensitive insect death ratio (%) ([4]; 10 ppm spray): 100%
Sensitive insect death ratio (%) ([4]; 100 ppm spray): 100%

CSc1cc2n(Cc3ccc(Cl)nc3)c(C)cc(=O)n2n1 [compound 154, 4-((6-chloropyridin-3-yl)methyl)-5-methyl-2-(methylthio)-pyrazolo[1,5-a]pyrimidin-7(4H)-one]
Adult insect death ratio (%) ([6]; 2 g a.i./box granules): 90%
Number of larvaes (number of insects) ([6]; 2 g a.i./box granules): 0 number of insects
pest or weed control at 3 ppm ([1]; after 6 days): 40%
Insect death ratio (%) ([2]; 10 ppm): 70%
pest or weed control at 100 ppm [7]: 0%
Insect death ratio (%) ([5]; 10 ppm): 100%
pest or weed control at 100 ppm [8]: 0%
Resistant insect death ratio (%) ([3]; 10 ppm spray): 100%
Resistant insect death ratio (%) ([3]; 100 ppm spray): 100%
Sensitive insect death ratio (%) ([4]; 10 ppm spray): 100%
Sensitive insect death ratio (%) ([4]; 100 ppm spray): 100%

lepimectin
Insect death ratio (%) ([2]; 10 ppm): 88%

milbemectin
Insect death ratio (%) ([2]; 10 ppm): 86%

From US9963451B2, “Fused ring pyrimidine compound and pest control agent containing the same” (Mitsui Chemicals Agro, Inc., priority 2013, dated 2018)
